Laboratory results taken from US7625580B1, “Semi-interpenetrating or interpenetrating polymer networks for drug delivery and tissue engineering” (Massachusetts Institute of Technology, priority 2000, dated 2009).

Test system: bovine chondroycytes
Assay: Biocompatibility of the photoinitiator, tested without polymer, on chondrocytes before and after UVA exposure
Format: cell-based
Conditions: for cell damage (morphology) after light exposure: UVA 3 minutes at 1-3 mW/cm^2
From the text: Although the initiator PHK is approved for dental applications, the initiator was examined without the presence of polymer to ascertain the toxicity of the radical produced to initiate a photopolymerization. The PEOD is very reactive towards the radical so the lack of polymer would make all radicals available to damage cells (a worst case scenario). Three initiator concentrations (0.1, 0.05 and 0.01% (w/w)) were examined.
Chondrocyte isolated from calf shoulders were maintained ex vivo in cell culture medium (DMEM) at 37° C. and 5% CO2. Cells were passaged approximately once a week. Approximately 10,000 cells per well in an 8-well tissue culture plate were seeded. 1-hydroxycylcohexyl-phenyl-ketone (HPK) was added to DMEM to reach 0.1, 0.05 and 0.01% (w/w) concentrations. The cells were incubated for 24 hours in the present of the initiator to examine possible acute cell toxicity. The cells were then exposed to UVA radiation (2 mW/cm^2) for 3 minutes to activate the photoactive initiator.
To determine the effect of photoactive initiator concentration on cells before exposure to light, cells were exposed to a concentration of 0% (w/w), 0.1% (w/w), 0.05% (w/w), and 0.01% (w/w).
The effect of photoactive initiator concentration on cells after exposure to light for four days was determined by exposing cells to a concentration of 0% (w/w), 0.1% (w/w), 0.05% (w/w), and 0.01% (w/w). The cells were compared morphologically and in relation to cell proliferation for 4 days.
Further analysis was made between controls which were a) not exposed to initiator or UVA, b) cells exposed to UVA only and c) cells exposed to UVA in the presence of 0.01% PHK. The effect of photoactive initiator on cells when exposed to no light or photoactive initiator, light only, 0.01% light and initiator, and 24 hours after light exposure was determined.

O=C(c1ccccc1)C1(O)CCCCC1 [initiator, 1-hydroxycylcohexyl-phenyl-ketone]
effect on proliferation and morphology (0.01% PHK with UVA versus no-treatment and UVA-only controls, 24 hours after light exposure): does not appear to alter proliferation and morphology
toxicity to cells before exposure to light (0.1, 0.05 and 0.01% (w/w), 24 hours incubation, no light): does not appear to be toxic
cell damage (morphology) after light exposure (initiator 0.01% versus control): no damage
cell damage (morphology) after light exposure (initiator 0.05%): Variable damage
cell damage (morphology) after light exposure (initiator 0.1%): extensive cell death
